Reference: PubChem BioAssay (NCI)
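Grown in 96-well plates, cells were treated for 48 hours with each compound at five concentrations. Insufficient inhibition: endpoint recorded as highest concentration tested. TGI: concentration producing complete growth inhibition.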

Key:
Assay in all cases: NCI anticancer screen, dose series, 48 h
SNB-19 CNS = test system: SNB-19 CNS
HT29 colon = test system: HT29 colon
SF-539 CNS = test system: SF-539 CNS
MDA-N = test system: MDA-N
TK-10 renal = test system: TK-10 renal
HOP-92 NSCLC = test system: HOP-92 NSCLC
COLO 205 colon = test system: COLO 205 colon
HCT-15 colon = test system: HCT-15 colon
SNB-75 CNS = test system: SNB-75 CNS
A549 NSCLC = test system: A549 NSCLC
M14 melanoma = test system: M14 melanoma
SF-268 CNS = test system: SF-268 CNS
IGROV1 ovarian = test system: IGROV1 ovarian
786-0 renal = test system: 786-0 renal
T-47D breast = test system: T-47D breast
EKVX NSCLC = test system: EKVX NSCLC
NCI-H226 lung = test system: NCI-H226 lung
ACHN renal = test system: ACHN renal
NCI-H522 lung = test system: NCI-H522 lung
DU-145 prostate = test system: DU-145 prostate
UACC-257 melanoma = test system: UACC-257 melanoma
SF-295 CNS = test system: SF-295 CNS
HS 578T breast = test system: HS 578T breast
OVCAR-8 ovarian = test system: OVCAR-8 ovarian
OVCAR-5 ovarian = test system: OVCAR-5 ovarian
SK-MEL-5 melanoma = test system: SK-MEL-5 melanoma
OVCAR-3 ovarian = test system: OVCAR-3 ovarian
MOLT-4 leukemia = test system: MOLT-4 leukemia
SR leukemia = test system: SR leukemia
MALME-3M melanoma = test system: MALME-3M melanoma
BT-549 breast = test system: BT-549 breast
A498 renal = test system: A498 renal
OVCAR-4 ovarian = test system: OVCAR-4 ovarian
HL-60(TB) leukemia = test system: HL-60(TB) leukemia
MDA-MB-435 = test system: MDA-MB-435
HOP-62 NSCLC = test system: HOP-62 NSCLC
RXF 393 renal = test system: RXF 393 renal
RPMI-8226 leukemia = test system: RPMI-8226 leukemia
NCI-H460 lung = test system: NCI-H460 lung
MCF7 breast = test system: MCF7 breast
CAKI-1 renal = test system: CAKI-1 renal
HCT-116 colon = test system: HCT-116 colon
CCRF-CEM leukemia = test system: CCRF-CEM leukemia
MDA-MB-231 breast = test system: MDA-MB-231 breast
SK-MEL-28 melanoma = test system: SK-MEL-28 melanoma
LOX IMVI melanoma = test system: LOX IMVI melanoma
NCI-H23 lung = test system: NCI-H23 lung
SN12C renal = test system: SN12C renal
SK-OV-3 ovarian = test system: SK-OV-3 ovarian
U251 CNS = test system: U251 CNS
K-562 leukemia = test system: K-562 leukemia
SW-620 colon = test system: SW-620 colon
NCI/ADR-RES ovarian = test system: NCI/ADR-RES ovarian
KM12 colon = test system: KM12 colon
PC-3 prostate = test system: PC-3 prostate
HCC-2998 colon = test system: HCC-2998 colon
UACC-62 melanoma = test system: UACC-62 melanoma
UO-31 renal = test system: UO-31 renal
SK-MEL-2 melanoma = test system: SK-MEL-2 melanoma

SMILES: O=C(Nc1nnc(-c2ccc(Cl)cc2)o1)C(SC(=S)N1CCCCC1)c1ccccc1 (configuration not stated)
- TGI (SNB-19 CNS): > 100 µM
- TGI (HT29 colon): > 75.3 µM
- TGI (SF-539 CNS): > 84.2 µM
- TGI (MDA-N): 37.2 µM
- TGI (TK-10 renal): > 100 µM
- TGI (HOP-92 NSCLC): > 63.3 µM
- TGI (COLO 205 colon): > 100 µM
- TGI (HCT-15 colon): > 81.5 µM
- TGI (SNB-75 CNS): > 100 µM
- TGI (A549 NSCLC): 56.8 µM
- TGI (M14 melanoma): 32.1 µM
- TGI (SF-268 CNS): 61.1 µM
- TGI (IGROV1 ovarian): > 65.6 µM
- TGI (786-0 renal): > 78.2 µM
- TGI (T-47D breast): > 100 µM
- TGI (EKVX NSCLC): 54.1 µM
- TGI (NCI-H226 lung): 85.2 µM
- TGI (ACHN renal): 66.5 µM
- TGI (NCI-H522 lung): 37.7 µM
- TGI (DU-145 prostate): > 100 µM
- TGI (UACC-257 melanoma): > 70.4 µM
- TGI (SF-295 CNS): > 100 µM
- TGI (HS 578T breast): 85 µM
- TGI (OVCAR-8 ovarian): > 100 µM
- TGI (OVCAR-5 ovarian): 64.2 µM
- TGI (SK-MEL-5 melanoma): 32.5 µM
- TGI (OVCAR-3 ovarian): > 72.6 µM
- TGI (MOLT-4 leukemia): 12.3 µM
- TGI (SR leukemia): 16.2 µM
- TGI (MALME-3M melanoma): 36.6 µM
- TGI (BT-549 breast): > 86.7 µM
- TGI (A498 renal): 44.4 µM
- TGI (OVCAR-4 ovarian): > 100 µM
- TGI (HL-60(TB) leukemia): 26.2 µM
- TGI (MDA-MB-435): 97.6 µM
- TGI (HOP-62 NSCLC): > 100 µM
- TGI (RXF 393 renal): > 75.9 µM
- TGI (RPMI-8226 leukemia): 38.2 µM
- TGI (NCI-H460 lung): 31.6 µM
- TGI (MCF7 breast): 49.9 µM
- TGI (CAKI-1 renal): > 100 µM
- TGI (HCT-116 colon): 34.8 µM
- TGI (CCRF-CEM leukemia): > 43.5 µM
- TGI (MDA-MB-231 breast): 69.8 µM
- TGI (SK-MEL-28 melanoma): 56.3 µM
- TGI (LOX IMVI melanoma): > 50.6 µM
- TGI (NCI-H23 lung): > 76.8 µM
- TGI (SN12C renal): 41.6 µM
- TGI (SK-OV-3 ovarian): > 100 µM
- TGI (U251 CNS): > 100 µM
- TGI (K-562 leukemia): > 88 µM
- TGI (SW-620 colon): > 100 µM
- TGI (NCI/ADR-RES ovarian): > 68.2 µM
- TGI (KM12 colon): > 100 µM
- TGI (PC-3 prostate): > 100 µM
- TGI (HCC-2998 colon): 76.8 µM
- TGI (UACC-62 melanoma): 31.8 µM
- TGI (UO-31 renal): 27.8 µM
- TGI (SK-MEL-2 melanoma): 52.6 µM

SMILES: CCCCCCCCCCCC(=O)NCc1ccc(OC(=O)CCCCCCCCCCC)c(OC)c1
- TGI (SNB-19 CNS): > 100 µM
- TGI (HT29 colon): > 100 µM
- TGI (SF-539 CNS): 16.7 µM
- TGI (MDA-N): > 100 µM
- TGI (TK-10 renal): > 100 µM
- TGI (HOP-92 NSCLC): > 100 µM
- TGI (COLO 205 colon): > 72.4 µM
- TGI (HCT-15 colon): > 100 µM
- TGI (SNB-75 CNS): > 100 µM
- TGI (A549 NSCLC): > 100 µM
- TGI (M14 melanoma): > 100 µM
- TGI (SF-268 CNS): > 100 µM
- TGI (IGROV1 ovarian): > 57.3 µM
- TGI (786-0 renal): > 100 µM
- TGI (T-47D breast): > 100 µM
- TGI (EKVX NSCLC): > 100 µM
- TGI (NCI-H226 lung): > 100 µM
- TGI (ACHN renal): > 100 µM
- TGI (NCI-H522 lung): 12.2 µM
- TGI (DU-145 prostate): > 100 µM
- TGI (UACC-257 melanoma): > 100 µM
- TGI (SF-295 CNS): > 100 µM
- TGI (HS 578T breast): > 100 µM
- TGI (OVCAR-8 ovarian): > 100 µM
- TGI (OVCAR-5 ovarian): > 100 µM
- TGI (SK-MEL-5 melanoma): > 100 µM
- TGI (OVCAR-3 ovarian): > 100 µM
- TGI (MOLT-4 leukemia): > 100 µM
- TGI (SR leukemia): > 92.8 µM
- TGI (MALME-3M melanoma): > 100 µM
- TGI (BT-549 breast): > 100 µM
- TGI (A498 renal): > 100 µM
- TGI (OVCAR-4 ovarian): > 100 µM
- TGI (HL-60(TB) leukemia): 37.8 µM
- TGI (MDA-MB-435): > 100 µM
- TGI (HOP-62 NSCLC): > 100 µM
- TGI (RXF 393 renal): > 100 µM
- TGI (RPMI-8226 leukemia): > 100 µM
- TGI (NCI-H460 lung): > 100 µM
- TGI (MCF7 breast): > 100 µM
- TGI (CAKI-1 renal): > 100 µM
- TGI (HCT-116 colon): > 100 µM
- TGI (CCRF-CEM leukemia): 11.6 µM
- TGI (MDA-MB-231 breast): > 100 µM
- TGI (SK-MEL-28 melanoma): > 100 µM
- TGI (LOX IMVI melanoma): > 100 µM
- TGI (NCI-H23 lung): > 100 µM
- TGI (SN12C renal): > 100 µM
- TGI (SK-OV-3 ovarian): > 100 µM
- TGI (U251 CNS): > 100 µM
- TGI (K-562 leukemia): > 100 µM
- TGI (SW-620 colon): > 100 µM
- TGI (NCI/ADR-RES ovarian): > 100 µM
- TGI (KM12 colon): > 100 µM
- TGI (PC-3 prostate): 97.9 µM
- TGI (HCC-2998 colon): > 100 µM
- TGI (UACC-62 melanoma): > 100 µM
- TGI (UO-31 renal): > 100 µM
- TGI (SK-MEL-2 melanoma): > 100 µM

SMILES: CCCCC(=O)OC[n+]1ccc(-c2c(COC(=O)NC(C)C)c(COC(=O)NC(C)C)c3n2CCC3)cc1
- TGI (SNB-19 CNS): > 100 µM
- TGI (HT29 colon): > 100 µM
- TGI (SF-539 CNS): > 100 µM
- TGI (MDA-N): > 100 µM
- TGI (TK-10 renal): > 100 µM
- TGI (HOP-92 NSCLC): > 100 µM
- TGI (COLO 205 colon): > 100 µM
- TGI (HCT-15 colon): > 100 µM
- TGI (SNB-75 CNS): > 100 µM
- TGI (A549 NSCLC): > 100 µM
- TGI (M14 melanoma): > 100 µM
- TGI (SF-268 CNS): > 100 µM
- TGI (IGROV1 ovarian): > 100 µM
- TGI (786-0 renal): > 100 µM
- TGI (T-47D breast): > 100 µM
- TGI (EKVX NSCLC): > 100 µM
- TGI (NCI-H226 lung): > 100 µM
- TGI (ACHN renal): > 100 µM
- TGI (NCI-H522 lung): > 100 µM
- TGI (DU-145 prostate): > 100 µM
- TGI (UACC-257 melanoma): > 100 µM
- TGI (SF-295 CNS): > 100 µM
- TGI (HS 578T breast): > 100 µM
- TGI (OVCAR-8 ovarian): > 100 µM
- TGI (OVCAR-5 ovarian): > 100 µM
- TGI (SK-MEL-5 melanoma): > 100 µM
- TGI (OVCAR-3 ovarian): > 100 µM
- TGI (MOLT-4 leukemia): > 80.7 µM
- TGI (SR leukemia): > 84.4 µM
- TGI (MALME-3M melanoma): > 100 µM
- TGI (BT-549 breast): > 100 µM
- TGI (A498 renal): 76.5 µM
- TGI (OVCAR-4 ovarian): > 100 µM
- TGI (HL-60(TB) leukemia): > 79.8 µM
- TGI (MDA-MB-435): > 100 µM
- TGI (HOP-62 NSCLC): > 100 µM
- TGI (RXF 393 renal): > 100 µM
- TGI (RPMI-8226 leukemia): > 100 µM
- TGI (NCI-H460 lung): > 100 µM
- TGI (MCF7 breast): > 100 µM
- TGI (CAKI-1 renal): > 100 µM
- TGI (HCT-116 colon): > 100 µM
- TGI (CCRF-CEM leukemia): > 100 µM
- TGI (MDA-MB-231 breast): > 100 µM
- TGI (SK-MEL-28 melanoma): > 100 µM
- TGI (LOX IMVI melanoma): > 100 µM
- TGI (NCI-H23 lung): > 100 µM
- TGI (SN12C renal): > 100 µM
- TGI (SK-OV-3 ovarian): > 100 µM
- TGI (U251 CNS): > 100 µM
- TGI (K-562 leukemia): > 100 µM
- TGI (SW-620 colon): > 100 µM
- TGI (NCI/ADR-RES ovarian): > 100 µM
- TGI (KM12 colon): > 100 µM
- TGI (PC-3 prostate): > 100 µM
- TGI (HCC-2998 colon): > 100 µM
- TGI (UACC-62 melanoma): > 100 µM
- TGI (UO-31 renal): > 100 µM
- TGI (SK-MEL-2 melanoma): > 100 µM
